Measurements taken from the OligoGym collection.
These antisense oligonucleotides have a phosphorothioate backbone; sugars and methylation of C are not fully specified.

target: DUSP8; settings: ASO
Also: test concentration or dose not given here.

| Sequence | remaining target (mRNA or protein) (fraction of control) |
| --- | --- |
| GTAGGTGGTGGCAGCCGTGG | ≥ 1 |
| TGCCCATGGTCTTCATGATG | 0.7 |
| CCCAGGCCCGCCCCGCAGCA | 0.66 |
| TTTCACAGTAGTTGTCGTTG | ≥ 1 |
| AGAGCGGGAGATGCCAGCCA | 0.32 |
| CCCGTCGGGCGACGGCGTGC | ≥ 1 |
| GAGAGCTTGGCTTTATCGAT | 0.68 |
| GAGCCGGTCCCCAGCCATGG | ≥ 1 |
| CGCCCGCCCGGCCGAAGGGC | 0.86 |
| GGCAGGCAGGGCTGGGAGAG | ≥ 1 |
| TCGCCTGCTTGCCCAGGGCG | 0.69 |
| AGCAGATGTTGACGGAGCTG | ≥ 1 |
| TCACCTTGCCCTGCTGCAGC | 0.33 |
| AGCTGGCCCAGGAAGTTGAA | 0.95 |
| ACCTGGCTGCGTGCAGCCGG | ≥ 1 |
| GTCAGGACACCTCGATGACC | ≥ 1 |
| CACCATGCCCTCCTCGAACT | 0.84 |
| CTCAGGCCGCCCTCCCTGGC | 0.65 |
| CAGGGCGGCCAGCAGCTTCA | ≥ 1 |
| CAGGCTTGCCCTCGCAGAGG | ≥ 1 |

| Sequence | remaining target (mRNA or protein) (fraction of control) |
| --- | --- |
| GGCCAGCCGGTCCGCGCGTC | 0.52 |
| TTGCTGGCGTTGAGGACGTA | 0.45 |
| GTCGAAGCAGCCGTCCAGCT | ≥ 1 |
| ATCAGATCCTTGTTTAGGAC | ≥ 1 |
| TGGTCATAGACCACCACGTC | ≥ 1 |
| GACTGAAGGTGGCCTCGTAT | 0.69 |
| TTCTTTGCATTATATATAAT | ≥ 1 |
| CCTCAGGCGCGGCGTCCGGG | ≥ 1 |
| TCTGCCGGGCCGCATCGCCG | 0.35 |
| GCTGGACCTCGCTCGCGCTC | ≥ 1 |
| AAGCTGTCTGCGGCCAGCAC | 0.71 |
| GGGCAGCCCGGGCGCCGACA | 0.81 |
| GGCTGCTCCGACGGCCCAGG | ≥ 1 |
| GAGCTCGAGGACCACCCGCA | 0.89 |
| AGAGGTGAGGCAGGATGCGG | ≥ 1 |
| CCGACGGGCTGTCCAGCTTG | 0.94 |
| AGGAGAGGTGCAGGCCGCGC | 0.91 |
| GCCTGTCCTTCACGAACCTG | ≥ 1 |
| GGAGAAGGAGCGCTTGAGGC | 0.98 |

target: DUSP9; settings: ASO

| Sequence | remaining target (mRNA or protein) (fraction of control) |
| --- | --- |
| CAGCAGGGTGCCCAGCACCG | ≥ 1 |
| CCACGGGCACTGGACCGGGC | 0.5 |
| CCTCCATGGGCGATCGGCTC | 0.7 |
| GCCACGCTCAGCGCCCCACC | 0.94 |
| CCCAGGGCCGGGACCTGGGC | 0.98 |
| CGGCCCAGACCCTCCATGGG | 0.57 |
| TGACAACACCAGTGATGGCA | 0.52 |
| AGGCCCCAGCCCCGAGAGGC | 0.54 |
| ATTAGGACGGCAGCCCGCGT | ≥ 1 |
| GGGCGCTCCGCTCTGCTCGG | 0.8 |
| TCCATGGGCGATCGGCTCCC | 0.74 |
| AAGAACCGCGACAGGTTCTG | 0.83 |
| AGCGGCCCAGACCCTCCATG | 0.46 |
| GACCCCATCTCCTCCGGCGG | 0.23 |
| CGAGCACCCCGCAGTTCTGG | 0.94 |
| AGCCCCAGTGATCCCGTCAA | ≥ 1 |
| CGAGCCCTCCTGCCCTCCCC | 0.65 |
| GACAGAAATGAATGACTGTG | 0.14 |
| CCAGGCAGGAGCGCGCGCAC | 0.62 |
| CTCATGGAGTCGCGGTCAGC | 0.86 |

| Sequence | remaining target (mRNA or protein) (fraction of control) |
| --- | --- |
| CCAGACCCTCCATGGGCGAT | ≥ 1 |
| CGAGCGGCCCAGACCCTCCA | ≥ 1 |
| GGGCCCCGCAGCAGCAAAAG | 0.35 |
| AGAAGAGGCAGGCTCCGAGC | 0.53 |
| CTCCTGCGAGTGGCGCTCCT | ≥ 1 |
| ACCCTCCATGGGCGATCGGC | 0.43 |
| TGGGCAGGGACACCCGTGGG | 0.79 |
| CCCATGAAGTTGAAGTTGGG | 0.44 |
| CCGGGCACTGCCCAGATAGA | 0.62 |
| AGGCCATGGATGTGGGCGGC | 0.57 |
| GCCCAGACCCTCCATGGGCG | 0.92 |
| TGGGCGATCGGCTCCCTACA | 0.91 |
| CGTCGCGGCCGGGAAGTTTC | 0.95 |
| AGGAGCAGGAGCCGCGGCCG | 0.7 |
| AGACCCTCCATGGGCGATCG | 0.45 |
| TGGAGCTTCTGCATGAGGTA | 0.75 |
| CGAAGAAGTTTGGGAGGTTG | 0.3 |
| CATGGGCGATCGGCTCCCTA | 0.85 |
| GTGGCACACACCCTTCCTGA | ≥ 1 |

target: ERBB2; settings: ASO

| Sequence | remaining target (mRNA or protein) (fraction of control) |
| --- | --- |
| GCAGCGGGAGCCCTTACA | 0.83 |
| GGGAACTCAAGCAGGAAG | 0.68 |
| CTGGTAGAGGTGGCGGAG | ≥ 1 |
| GGTCTCGGGACTGGCAGG | 0.68 |
| GGGTGGCACGGCAAACAG | 0.81 |
| CACTGGTAACTGCCCTCA | 0.54 |
| GCCAGGGCATAGTTGTCC | 0.81 |
| CCCTTGTAGACTGTGCCA | 0.56 |
| TCAGGTTTCACACCGCTG | 0.66 |
| GGGTGGTATTGTTCAGCG | 0.94 |
| CCTGCCTCACTTGGTTGT | 0.64 |
| GACCATAGCACACTCGGG | 0.57 |
| GTTGGGCATCGCTCCGCT | 0.59 |
| CCACAAAGACTCCCCAGT | 0.44 |
| CAGGAAGGACAGGCTGGC | 0.94 |
| TTCTGCTGCCGTCGCTTG | 0.75 |
| GTGGATGTCAGGCAGATG | 0.86 |
| ACCGCAGAGATGATGGAC | 0.98 |

| Sequence | remaining target (mRNA or protein) (fraction of control) |
| --- | --- |
| CCATCAGTCTCAGAGGGC | 0.3 |
| CGAAGGCTGGGCTGAAGG | 0.73 |
| GCACGAAGCAGAGGTGGG | 0.47 |
| TCGGAGCCAGCCCCTTCG | 0.53 |
| CCAGCAGTGAGCGGTAGA | 0.41 |
| CCGCACATCCTCCAGGTA | 0.64 |
| GCACTTCTCACACCGCTG | 0.51 |
| GACCACGACCAGCAGAAT | 0.76 |
| CCTTTCCAGAGTGGCACC | 0.75 |
| CAGGGTCAGCGAGTAGGC | 0.89 |
| ACTCTGGTGGGTGAACCG | 0.86 |
| GGCAGTGTTGGAGGCTGG | 0.57 |
| GCACCACCTGGCAGCCCT | 0.73 |
| TTGACACACTGGGTGGGC | 0.61 |
| TGATGCCAGCAGAAGTCA | 0.94 |
| GTGGTTGAAGTGGAGGCA | 0.98 |
| GCTGGTTGTTCTTGTGGA | 0.73 |
| GCAGCCGAGCCAGCCCGA | 0.61 |

target: PIK3CB; settings: ASO

| Sequence | remaining target (mRNA or protein) (fraction of control) |
| --- | --- |
| AACATTTGGAGTGTCAACAT | ≥ 1 |
| TATTGAGAAAGTTCTTCATC | 0.86 |
| CATATTAGGAGACACTTGAA | ≥ 1 |
| AGGTATGGAGCCATCAGATG | ≥ 1 |
| GGGCAAAAGGAAATCCACAG | ≥ 1 |
| GAGGTTGAACATTGGGTAAT | 0.79 |
| GTCAATATCCATAAGGAGGT | ≥ 1 |
| TGCAACACATAATCATAGGG | ≥ 1 |
| GATCCTTCAAGGAATCAAAT | 0.91 |
| ATGCAAACATATAGGAGTCA | ≥ 1 |
| ATTGAGTGCTTCAACCTGCT | ≥ 1 |
| TGTAATATTATGTCTCCAGT | 0.9 |
| TAAACACGTCCTGGCAGTTT | ≥ 1 |
| CACCGCCCAGATGTCAAGGA | 0.5 |
| CCATAACATCTGCTTAATAT | ≥ 1 |
| TTCACTTTAGTAGTCCAGCT | 0.89 |
| GAGGATAACACATGGGTTCA | ≥ 1 |
| CAGCGCAAAGAGAGTGATGA | ≥ 1 |
| TGCCAATTCATTTACTTTGA | ≥ 1 |
| CACACAGTTCCGGATATACT | ≥ 1 |
| ATGAACAGCTACGATGAGCT | 0.73 |
| GATGTCTGCCATAGCAGGAG | ≥ 1 |
